Measured values published in BindingDB's records for doi:10.1016/0968-0896(96)00134-4 (Parke-Davis Pharmaceutical Research, 1996).

Biological target: T1, Dimer of Gag-Pol polyprotein [489-587] (Human immunodeficiency virus 1, UniProt P12497)
T1 construct: 489-587
Assay: Protease Inhibition Assay
Conditions: pH 4.7; 37 °C
Procedure: For determination of IC50 values, HIV-1 protease was added to assay buffer containing inhibitor and the substrate (H-His-Lys-Ala-Arg-Val-Leu- (p-NO2) Phe-Glu-Ala-norleucine-Ser-NH2). The Leu- (p-NO2) Phe bond of the substrate was cleaved by the enzyme, and the substrate and products were separated by reversed-phase HPLC. Absorbance was measured at 220 nm, peak areas were determined, and percentage conversion to product was calculated.

| SMILES | IC50 [µM] |
| --- | --- |
| O=C(O)COc1ccc(-c2cc(O)c(SCCc3ccccc3)c(=O)o2)cc1 [2-(4-{4-hydroxy-2-oxo-3-[(2-phenylethyl)sulfanyl]-2H-pyran-6-yl}phenoxy)acetic acid] | 0.16 |
| O=C(CCCCC1CCCCC1)OCC(O)C1OC(=O)C(O)C1=O (stereo unspecified) [2-(3,4-dihydroxy-5-oxo-2,5-dihydrofuran-2-yl)-2-hydroxyethyl 5-cyclohexylpentanoate] | 29 |
| O=c1oc(-c2ccc(O)cc2)cc(O)c1SCCc1ccccc1 [4-hydroxy-6-(4-hydroxyphenyl)-3-[(2-phenylethyl)sulfanyl]-2H-pyran-2-one] | 0.52 |
| O=c1oc(-c2ccccc2)cc(O)c1Sc1ccccc1 | 3 |
| CC(C)c1ccccc1Sc1c(O)cc(-c2ccccc2)oc1=O [4-hydroxy-6-phenyl-3-{[2-(propan-2-yl)phenyl]sulfanyl}-2H-pyran-2-one] | 0.037 |
| Cc1cccc(-c2cc(O)c(Sc3ccccc3C(C)(C)C)c(=O)o2)c1 [3-[(2-tert-butylphenyl)sulfanyl]-4-hydroxy-6-(3-methylphenyl)-2H-pyran-2-one] | 0.007 |
| O=C(O)c1cc(O)c(O)cc1C(=O)c1cc(Cl)ccc1Cl [2-[(2,5-dichlorophenyl)carbonyl]-4,5-dihydroxybenzoic acid] | 8.1 |
| O=C(CCc1ccc(Br)cc1)c1ccc(CC(=O)c2ccccc2-c2ccccc2C(=O)O)cc1 [2-[2-(2-{4-[3-(4-bromophenyl)propanoyl]phenyl}acetyl)phenyl]benzoic acid] | 19 |
| O=c1oc(-c2ccccc2)cc(O)c1SCc1ccccc1 [3-(benzylsulfanyl)-4-hydroxy-6-phenyl-2H-pyran-2-one] | 1.7 |
| Cc1ccccc1Sc1c(O)cc(-c2ccccc2)oc1=O [4-hydroxy-3-[(2-methylphenyl)sulfanyl]-6-phenyl-2H-pyran-2-one] | 0.42 |
| O=c1oc2ccccc2c(O)c1Cc1ccccc1 [3-benzyl-4-hydroxy-2H-chromen-2-one] | 120 |
| O=c1oc(-c2ccccc2)cc(O)c1SCCc1ccccc1 [4-hydroxy-6-phenyl-3-[(2-phenylethyl)sulfanyl]-2H-pyran-2-one] | 1.3 |
| O=C(O)c1cc(-c2ccc(Cl)cc2)nc2cc(O)ccc12 [2-(4-chlorophenyl)-7-hydroxyquinoline-4-carboxylic acid] | 6.9 |
| O=c1cc(Cc2cccc(Cl)c2)[nH][nH]1 [5-[(3-chlorophenyl)methyl]-2,3-dihydro-1H-pyrazol-3-one] | 29 |
| CC(C)(C)c1ccccc1Sc1c(O)cc(-c2ccccc2)oc1=O [3-[(2-tert-butylphenyl)sulfanyl]-4-hydroxy-6-phenyl-2H-pyran-2-one] | 0.017 |

Same assay, conditions: pH 6.2; 37 °C

| SMILES | IC50 [µM] |
| --- | --- |
| CC(C)c1ccccc1Sc1c(O)cc(-c2ccccc2)oc1=O [4-hydroxy-6-phenyl-3-{[2-(propan-2-yl)phenyl]sulfanyl}-2H-pyran-2-one] | 0.69 |
